Source: ChEMBL document CHEMBL1148655, “Anti-angiogenic activity of basic-type, selective cyclooxygenase (COX)-1 inhibitors” (2006)
Active and inactive are the calls of the source. The rule behind the calls is not given here.

System: HUVEC
Assay: Antiangiogenic activity against HUVEC cells by tube formation assay at 100 uM
Assay type: functional, Homo sapiens
Settings: not given

Which Activity does the source give for `Cc1cc(C)cc(N2CCc3cc(N)ccc32)c1` here?
Its Activity is 75%.

Same assay, conditions: Homo sapiens, HUVEC

How did the inhibition at 100 µM turn out when `CC(C)Cc1ccc(C(C)C(=O)O)cc1` (stereo not drawn) [IBUPROFEN] was run?
Its inhibition at 100 µM is 35%.

Which inhibition at 100 µM does the source give for `CS(=O)(=O)c1ccc(-c2cc(Br)sc2-c2ccc(F)cc2)cc1` [DUP-697] here?
The inhibition at 100 µM was 25%.

With `Cc1cc(C)cc(C(=O)n2ccc3cc(N)ccc32)c1` as the compound, how does the inhibition at 100 µM read?
The inhibition at 100 µM was 50%.

System: HUVEC
Assay: Cytotoxicity against HUVEC cell line
Assay type: functional
Settings: Homo sapiens, read-out: LD50 (the source's name)

With `Cc1cc(C)cc(C(=O)n2ccc3cc([N+](=O)[O-])ccc32)c1` as the compound, how does the CC50 read?
The CC50 was over 100 µM.

For `Nc1ccc2c(c1)CCN2C(=O)c1cc(Cl)cc(Cl)c1`, which CC50 is on record?
The CC50 was over 100 µM.

How did the CC50 turn out when `Cc1cc(C)cc(C(=O)N2CCc3cc([N+](=O)[O-])ccc32)c1` was run?
Its CC50 is over 100 µM.

With `CC(C)(C)c1cc(C(=O)N2CCc3cc(N)ccc32)cc(C(C)(C)C)c1` as the compound, how does the CC50 read?
The CC50 was over 100 µM.

With `O=C(c1cc(C(F)(F)F)cc(C(F)(F)F)c1)n1ccc2cc([N+](=O)[O-])ccc21` as the compound, how does the CC50 read?
The CC50 was over 100 µM.

How did the CC50 turn out when `CC(C)(C)c1cc(C(=O)n2ccc3cc(N)ccc32)cc(C(C)(C)C)c1` was run?
Its CC50 is over 100 µM.

Which CC50 does the source give for `Cc1cc(C)cc(C(=O)N2CCc3cc(N)ccc32)c1` here?
The CC50 was over 100 µM.

With `O=C(c1cc(C(F)(F)F)cc(C(F)(F)F)c1)N1CCc2cc([N+](=O)[O-])ccc21` as the compound, how does the CC50 read?
The CC50 was over 100 µM.

For `O=C(c1cc(Cl)cc(Cl)c1)n1ccc2cc([N+](=O)[O-])ccc21`, which CC50 is on record?
Its CC50 is over 100 µM.

How did the CC50 turn out when `Nc1ccc2c(ccn2C(=O)c2cc(Cl)cc(Cl)c2)c1` was run?
Its CC50 is over 100 µM.

`CC(C)(C)c1cc(C(=O)n2ccc3cc([N+](=O)[O-])ccc32)cc(C(C)(C)C)c1` was tested. Which CC50 did it give?
Its CC50 is over 100 µM.

Which CC50 does the source give for `O=C(c1cc(Cl)cc(Cl)c1)N1CCc2cc([N+](=O)[O-])ccc21` here?
Its CC50 is over 100 µM.

For `Cc1cc(C)cc(C(=O)n2ccc3cc(N)ccc32)c1`, which CC50 is on record?
Its CC50 is over 100 µM.

Which CC50 does the source give for `Nc1ccc2c(c1)CCN2C(=O)c1cc(C(F)(F)F)cc(C(F)(F)F)c1` here?
Its CC50 is over 100 µM.

`Nc1ccc2c(ccn2C(=O)c2cc(C(F)(F)F)cc(C(F)(F)F)c2)c1` was tested. Which CC50 did it give?
Its CC50 is over 100 µM.

`CC(C)(C)c1cc(C(=O)N2CCc3cc([N+](=O)[O-])ccc32)cc(C(C)(C)C)c1` was tested. Which CC50 did it give?
The CC50 was over 100 µM.

Target: Prostaglandin G/H synthase 1 (Homo sapiens) (UniProt P23219)
Settings: at 30 µM
Description: Inhibition of COX1 at 30 uM

Sequence of Prostaglandin G/H synthase 1 (Homo sapiens) (P23219 whole entry): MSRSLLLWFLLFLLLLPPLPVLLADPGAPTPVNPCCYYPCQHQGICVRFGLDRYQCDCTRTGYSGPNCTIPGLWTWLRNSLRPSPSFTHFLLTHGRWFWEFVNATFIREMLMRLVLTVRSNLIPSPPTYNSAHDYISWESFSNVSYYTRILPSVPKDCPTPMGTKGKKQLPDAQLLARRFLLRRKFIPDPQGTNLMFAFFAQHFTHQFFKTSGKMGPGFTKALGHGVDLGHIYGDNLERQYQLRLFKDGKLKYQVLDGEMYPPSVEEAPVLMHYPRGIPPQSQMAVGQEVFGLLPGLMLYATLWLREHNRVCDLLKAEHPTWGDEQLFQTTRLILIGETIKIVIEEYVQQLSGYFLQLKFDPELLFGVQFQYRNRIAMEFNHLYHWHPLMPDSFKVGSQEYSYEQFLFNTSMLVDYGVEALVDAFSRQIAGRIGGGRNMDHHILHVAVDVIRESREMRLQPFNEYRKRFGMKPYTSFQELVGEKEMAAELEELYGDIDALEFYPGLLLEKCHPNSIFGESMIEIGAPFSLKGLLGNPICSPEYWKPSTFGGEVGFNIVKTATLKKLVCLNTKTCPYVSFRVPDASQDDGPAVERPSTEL

`CC(=O)Oc1ccccc1C(=O)O` was tested. Which inhibition did it give?
The inhibition was 21.9%.

With `CS(=O)(=O)c1ccc(-c2cc(Br)sc2-c2ccc(F)cc2)cc1` [DUP-697] as the compound, how does the inhibition read?
The inhibition was “inactive”.

Target: T1, Prostaglandin G/H synthase 2 (Homo sapiens) (UniProt P35354)
T1 sequence (whole entry): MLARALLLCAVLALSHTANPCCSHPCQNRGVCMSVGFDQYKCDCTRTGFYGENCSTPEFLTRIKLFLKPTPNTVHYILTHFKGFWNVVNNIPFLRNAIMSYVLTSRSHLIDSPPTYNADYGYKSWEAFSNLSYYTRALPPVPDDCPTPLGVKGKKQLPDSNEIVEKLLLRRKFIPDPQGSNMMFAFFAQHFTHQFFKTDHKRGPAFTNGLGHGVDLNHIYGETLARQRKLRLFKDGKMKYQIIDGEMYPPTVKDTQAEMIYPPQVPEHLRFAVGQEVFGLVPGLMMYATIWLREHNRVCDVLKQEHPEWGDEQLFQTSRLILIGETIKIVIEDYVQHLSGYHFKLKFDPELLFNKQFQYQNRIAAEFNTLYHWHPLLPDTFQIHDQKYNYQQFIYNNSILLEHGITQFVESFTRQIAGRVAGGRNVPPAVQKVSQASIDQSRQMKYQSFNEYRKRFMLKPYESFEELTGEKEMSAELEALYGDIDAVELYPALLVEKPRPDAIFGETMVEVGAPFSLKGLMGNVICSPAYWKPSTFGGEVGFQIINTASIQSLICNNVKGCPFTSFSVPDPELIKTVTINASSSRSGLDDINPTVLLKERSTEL
Settings: at 30 µM
Description: Inhibition of COX2 at 30 uM

How did the inhibition turn out when `CC(=O)Oc1ccccc1C(=O)O` was run?
Its inhibition is 15.7%.
